According to US9546156B2, “N-bicyclic aryl,N'-pyrazolyl urea, thiourea, guanidine cyanoguanidine compounds as TrkA kinase inhibitors” (Array BioPharma Inc., priority 2012, dated 2017):

How the values were obtained:
[1] = target: T1, His-tagged recombinant human TrkA (Homo sapiens, UniProt P04629); assay: TrkA LanthaScreen Eu Kinase Binding Assay; settings: averaged IC50; TR-FRET binding assay, 60 min, 22° C.; read-out: TrkA Enzyme IC50
T1 construct: 6HIS tagged cytoplasmic domain from Invitrogen, Catalog No. PV3144; purchased Invitrogen PV3144
Protocol: TrkA binding activity was determined in a TrkA LanthaScreen™ Eu Kinase Binding Assay. 5 nM His-tagged recombinant human TrkA (6HIS tagged cytoplasmic domain from Invitrogen, Catalog No. PV3144) was incubated with 4 nM Alexa-Fluor® Tracer 236 (Invitrogen Cat. No. PV5592), 2 nM biotinylated anti-His (Invitrogen Cat. No. PV6090), and 2 nM europium-labeled Streptavidin (Invitrogen Cat. No. PV5899), in buffer (25 mM MOPS, pH 7.5, 5 mM MgCl2, 0.005% Triton X-100). Three fold serial dilutions of compounds of the invention in DMSO were added to a final percentage of 2% DMSO. After 60-minute incubation at 22° C., the reaction was measured using the EnVision multimode plate reader (PerkinElmer) via TR-FRET dual wavelength detection at […]. The percent of control was calculated using a ratiometric emission factor. The IC50 values were determined by fitting a four parameter model to the percent of control data.
Table A provides averaged IC50 values for compounds of the invention when tested in the assay of Example A, where A represents an averaged IC50 value <100 nM; B represents an averaged IC50 value from 100 to 1,000 nM; and C represents an averaged IC50 value from 1,000 to 10,000 nM.

EphB3 = target: T2, EphB3 (Homo sapiens, UniProt P54753); assay: Off-target kinase profiling (KinaseProfiler); format: biochemical; settings: 10 μM, ATP near Km
T2 construct: purchased Millipore, Inc. (KinaseProfiler service)
Method in brief: (§1)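 One dose only: 10 μM. Kinases assayed in duplicate under near-Km ATP, results given as mean percent-of-control.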

ALK4 = target: T3, ALK4 (Homo sapiens, UniProt P36896); assay: Off-target kinase profiling (KinaseProfiler); format: biochemical; settings: 10 μM, ATP near Km
T3 construct: purchased Millipore, Inc. (KinaseProfiler service)
Method in brief: as §1

PrKX = target: T4, PrKX (Homo sapiens, UniProt P51817); assay: Off-target kinase profiling (KinaseProfiler); format: biochemical; settings: 10 μM, ATP near Km
T4 construct: purchased Millipore, Inc. (KinaseProfiler service)
Method in brief: as §1

KDR = target: T5, KDR (Homo sapiens, UniProt P35968); assay: Off-target kinase profiling (KinaseProfiler); format: biochemical; settings: 10 μM, ATP near Km
T5 construct: purchased Millipore, Inc. (KinaseProfiler service)
Method in brief: as §1

PAK4 = target: T6, PAK4 (Homo sapiens, UniProt O96013); assay: Off-target kinase profiling (KinaseProfiler); format: biochemical; settings: 10 μM, ATP near Km
T6 construct: purchased Millipore, Inc. (KinaseProfiler service)
T6 sequence (O96013 whole entry): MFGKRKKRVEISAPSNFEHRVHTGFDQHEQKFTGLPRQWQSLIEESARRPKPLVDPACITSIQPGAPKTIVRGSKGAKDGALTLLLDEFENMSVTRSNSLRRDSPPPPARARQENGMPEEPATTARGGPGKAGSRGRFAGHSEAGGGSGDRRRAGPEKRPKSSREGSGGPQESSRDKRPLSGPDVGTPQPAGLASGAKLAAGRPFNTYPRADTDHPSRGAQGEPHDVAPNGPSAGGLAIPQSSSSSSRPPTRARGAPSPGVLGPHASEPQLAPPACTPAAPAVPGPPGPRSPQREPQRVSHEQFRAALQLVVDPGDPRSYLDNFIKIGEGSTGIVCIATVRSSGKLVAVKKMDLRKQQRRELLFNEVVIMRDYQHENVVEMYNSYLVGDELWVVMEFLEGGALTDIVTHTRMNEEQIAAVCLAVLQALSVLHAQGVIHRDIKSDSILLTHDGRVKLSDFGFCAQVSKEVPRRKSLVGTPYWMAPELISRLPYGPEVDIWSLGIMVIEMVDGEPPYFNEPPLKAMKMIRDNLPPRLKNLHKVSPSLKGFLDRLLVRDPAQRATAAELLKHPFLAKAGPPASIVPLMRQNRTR
Method in brief: as §1

CAMK2b = target: T7, CAMK2b (Homo sapiens, UniProt Q13554); assay: Off-target kinase profiling (KinaseProfiler); format: biochemical; settings: 10 μM, ATP near Km
T7 construct: purchased Millipore, Inc. (KinaseProfiler service)
Method in brief: as §1

SGK2 = target: T8, SGK2 (Homo sapiens, UniProt Q9HBY8); assay: Off-target kinase profiling (KinaseProfiler); format: biochemical; settings: 10 μM, ATP near Km
T8 construct: purchased Millipore, Inc. (KinaseProfiler service)
T8 sequence (Q9HBY8 whole entry): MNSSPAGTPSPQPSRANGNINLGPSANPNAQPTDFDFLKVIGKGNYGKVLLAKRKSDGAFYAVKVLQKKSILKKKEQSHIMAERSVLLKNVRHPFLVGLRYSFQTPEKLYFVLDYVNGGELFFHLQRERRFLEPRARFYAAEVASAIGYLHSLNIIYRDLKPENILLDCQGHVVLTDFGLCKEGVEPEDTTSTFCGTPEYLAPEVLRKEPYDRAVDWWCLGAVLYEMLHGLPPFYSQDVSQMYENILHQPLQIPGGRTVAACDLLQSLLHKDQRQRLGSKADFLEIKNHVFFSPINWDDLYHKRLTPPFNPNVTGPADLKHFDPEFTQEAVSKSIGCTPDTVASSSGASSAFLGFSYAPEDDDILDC
Method in brief: as §1

DCAMKL2 = target: T9, DCAMKL2 (Homo sapiens, UniProt Q8N568); assay: Off-target kinase profiling (KinaseProfiler); format: biochemical; settings: 10 μM, ATP near Km
T9 construct: purchased Millipore, Inc. (KinaseProfiler service)
Method in brief: as §1

PRKG1beta = target: T10, PRKG1beta (Homo sapiens, UniProt Q13976); assay: Off-target kinase profiling (KinaseProfiler); format: biochemical; settings: 10 μM, ATP near Km
T10 construct: purchased Millipore, Inc. (KinaseProfiler service)
T10 sequence (Q13976 1-686 isoform Q13976-2): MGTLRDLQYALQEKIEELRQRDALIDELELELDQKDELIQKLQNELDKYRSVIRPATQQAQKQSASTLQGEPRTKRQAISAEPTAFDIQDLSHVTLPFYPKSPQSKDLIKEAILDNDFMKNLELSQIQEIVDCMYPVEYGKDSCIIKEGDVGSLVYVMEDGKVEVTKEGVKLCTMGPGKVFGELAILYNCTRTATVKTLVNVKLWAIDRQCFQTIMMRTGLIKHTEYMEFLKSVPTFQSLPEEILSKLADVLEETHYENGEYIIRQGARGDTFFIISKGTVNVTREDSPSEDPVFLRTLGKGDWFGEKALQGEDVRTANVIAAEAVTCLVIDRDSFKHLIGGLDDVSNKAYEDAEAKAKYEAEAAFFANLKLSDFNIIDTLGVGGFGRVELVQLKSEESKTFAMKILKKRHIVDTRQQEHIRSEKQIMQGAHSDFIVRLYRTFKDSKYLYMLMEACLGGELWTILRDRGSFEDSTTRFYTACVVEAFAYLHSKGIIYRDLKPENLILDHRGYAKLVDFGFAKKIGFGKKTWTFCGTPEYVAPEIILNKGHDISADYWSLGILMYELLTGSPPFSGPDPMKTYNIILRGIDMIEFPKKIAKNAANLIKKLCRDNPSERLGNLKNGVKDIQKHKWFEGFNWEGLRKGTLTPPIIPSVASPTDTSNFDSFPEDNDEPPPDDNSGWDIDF
Method in brief: as §1

GSK3alpha = target: T11, GSK3alpha (Homo sapiens, UniProt P49840); assay: Off-target kinase profiling (KinaseProfiler); format: biochemical; settings: 10 μM, ATP near Km
T11 construct: purchased Millipore, Inc. (KinaseProfiler service)
Method in brief: as §1

PKCtheta = target: T12, PKCtheta (Homo sapiens, UniProt Q04759); assay: Off-target kinase profiling (KinaseProfiler); format: biochemical; settings: 10 μM, ATP near Km
T12 construct: purchased Millipore, Inc. (KinaseProfiler service)
Method in brief: as §1

EphB1 = target: T13, EphB1 (Homo sapiens, UniProt P54762); assay: Off-target kinase profiling (KinaseProfiler); format: biochemical; settings: 10 μM, ATP near Km
T13 construct: purchased Millipore, Inc. (KinaseProfiler service)
T13 sequence (P54762 18-984): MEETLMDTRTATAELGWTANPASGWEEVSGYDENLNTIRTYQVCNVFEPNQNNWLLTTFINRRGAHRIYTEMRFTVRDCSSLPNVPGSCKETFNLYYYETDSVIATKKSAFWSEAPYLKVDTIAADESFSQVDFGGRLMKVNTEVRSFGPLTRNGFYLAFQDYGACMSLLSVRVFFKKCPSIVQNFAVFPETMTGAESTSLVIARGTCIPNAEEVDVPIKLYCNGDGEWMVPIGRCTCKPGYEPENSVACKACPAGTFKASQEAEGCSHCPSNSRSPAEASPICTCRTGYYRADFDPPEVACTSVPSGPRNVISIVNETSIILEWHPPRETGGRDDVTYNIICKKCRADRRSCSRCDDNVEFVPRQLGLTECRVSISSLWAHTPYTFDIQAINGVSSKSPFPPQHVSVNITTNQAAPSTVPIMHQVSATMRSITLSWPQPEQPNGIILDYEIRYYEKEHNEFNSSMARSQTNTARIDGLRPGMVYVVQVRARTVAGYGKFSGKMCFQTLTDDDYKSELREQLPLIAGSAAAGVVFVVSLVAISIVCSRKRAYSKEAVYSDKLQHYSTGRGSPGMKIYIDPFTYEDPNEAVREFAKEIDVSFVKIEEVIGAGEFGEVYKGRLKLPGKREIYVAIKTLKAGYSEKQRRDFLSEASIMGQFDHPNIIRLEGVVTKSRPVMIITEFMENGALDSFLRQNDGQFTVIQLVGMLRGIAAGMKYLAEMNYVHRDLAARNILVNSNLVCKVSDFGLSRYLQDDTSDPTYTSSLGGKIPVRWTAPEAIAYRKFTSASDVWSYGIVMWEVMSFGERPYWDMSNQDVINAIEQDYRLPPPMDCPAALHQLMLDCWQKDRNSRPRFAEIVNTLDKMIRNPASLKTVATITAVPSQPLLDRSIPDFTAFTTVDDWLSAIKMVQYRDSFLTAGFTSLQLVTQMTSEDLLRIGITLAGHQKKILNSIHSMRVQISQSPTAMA
Method in brief: as §1

Mer = target: T14, Mer (Homo sapiens, UniProt Q12866); assay: Off-target kinase profiling (KinaseProfiler); format: biochemical; settings: 10 μM, ATP near Km
T14 construct: purchased Millipore, Inc. (KinaseProfiler service)
T14 sequence (Q12866 21-999): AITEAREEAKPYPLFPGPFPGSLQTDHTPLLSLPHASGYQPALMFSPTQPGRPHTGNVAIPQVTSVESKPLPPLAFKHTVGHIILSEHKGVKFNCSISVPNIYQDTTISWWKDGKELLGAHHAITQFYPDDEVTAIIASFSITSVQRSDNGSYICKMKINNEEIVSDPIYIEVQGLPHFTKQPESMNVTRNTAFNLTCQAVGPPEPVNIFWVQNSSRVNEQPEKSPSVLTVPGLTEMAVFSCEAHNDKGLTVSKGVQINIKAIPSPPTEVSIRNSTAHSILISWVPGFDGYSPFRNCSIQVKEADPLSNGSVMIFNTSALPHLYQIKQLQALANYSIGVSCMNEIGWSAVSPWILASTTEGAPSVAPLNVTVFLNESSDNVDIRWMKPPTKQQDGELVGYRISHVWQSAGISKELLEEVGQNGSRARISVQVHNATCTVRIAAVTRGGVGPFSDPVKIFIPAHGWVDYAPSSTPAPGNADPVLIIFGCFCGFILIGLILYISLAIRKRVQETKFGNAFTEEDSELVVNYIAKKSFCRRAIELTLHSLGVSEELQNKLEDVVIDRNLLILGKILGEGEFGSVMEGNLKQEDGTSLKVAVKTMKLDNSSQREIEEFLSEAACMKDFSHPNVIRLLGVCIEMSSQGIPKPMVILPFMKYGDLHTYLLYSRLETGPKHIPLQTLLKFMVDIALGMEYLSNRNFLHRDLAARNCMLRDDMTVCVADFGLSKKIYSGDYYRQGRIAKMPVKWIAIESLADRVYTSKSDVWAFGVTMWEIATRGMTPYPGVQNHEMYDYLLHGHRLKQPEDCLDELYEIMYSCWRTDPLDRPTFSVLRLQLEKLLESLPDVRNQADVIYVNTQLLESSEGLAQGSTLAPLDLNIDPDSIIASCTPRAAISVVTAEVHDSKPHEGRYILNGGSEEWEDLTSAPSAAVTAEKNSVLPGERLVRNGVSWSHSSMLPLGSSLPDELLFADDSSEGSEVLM
Method in brief: as §1

Fer = target: T15, Fer (Homo sapiens, UniProt P16591); assay: Off-target kinase profiling (KinaseProfiler); format: biochemical; settings: 10 μM, ATP near Km
T15 construct: purchased Millipore, Inc. (KinaseProfiler service)
Method in brief: as §1

MARK1 = target: T16, MARK1 (Homo sapiens, UniProt Q9P0L2); assay: Off-target kinase profiling (KinaseProfiler); format: biochemical; settings: 10 μM, ATP near Km
T16 construct: purchased Millipore, Inc. (KinaseProfiler service)
Method in brief: as §1

Ron = target: T17, Ron (Homo sapiens, UniProt Q04912); assay: Off-target kinase profiling (KinaseProfiler); format: biochemical; settings: 10 μM, ATP near Km
T17 construct: purchased Millipore, Inc. (KinaseProfiler service)
T17 sequence (Q04912 25-1400): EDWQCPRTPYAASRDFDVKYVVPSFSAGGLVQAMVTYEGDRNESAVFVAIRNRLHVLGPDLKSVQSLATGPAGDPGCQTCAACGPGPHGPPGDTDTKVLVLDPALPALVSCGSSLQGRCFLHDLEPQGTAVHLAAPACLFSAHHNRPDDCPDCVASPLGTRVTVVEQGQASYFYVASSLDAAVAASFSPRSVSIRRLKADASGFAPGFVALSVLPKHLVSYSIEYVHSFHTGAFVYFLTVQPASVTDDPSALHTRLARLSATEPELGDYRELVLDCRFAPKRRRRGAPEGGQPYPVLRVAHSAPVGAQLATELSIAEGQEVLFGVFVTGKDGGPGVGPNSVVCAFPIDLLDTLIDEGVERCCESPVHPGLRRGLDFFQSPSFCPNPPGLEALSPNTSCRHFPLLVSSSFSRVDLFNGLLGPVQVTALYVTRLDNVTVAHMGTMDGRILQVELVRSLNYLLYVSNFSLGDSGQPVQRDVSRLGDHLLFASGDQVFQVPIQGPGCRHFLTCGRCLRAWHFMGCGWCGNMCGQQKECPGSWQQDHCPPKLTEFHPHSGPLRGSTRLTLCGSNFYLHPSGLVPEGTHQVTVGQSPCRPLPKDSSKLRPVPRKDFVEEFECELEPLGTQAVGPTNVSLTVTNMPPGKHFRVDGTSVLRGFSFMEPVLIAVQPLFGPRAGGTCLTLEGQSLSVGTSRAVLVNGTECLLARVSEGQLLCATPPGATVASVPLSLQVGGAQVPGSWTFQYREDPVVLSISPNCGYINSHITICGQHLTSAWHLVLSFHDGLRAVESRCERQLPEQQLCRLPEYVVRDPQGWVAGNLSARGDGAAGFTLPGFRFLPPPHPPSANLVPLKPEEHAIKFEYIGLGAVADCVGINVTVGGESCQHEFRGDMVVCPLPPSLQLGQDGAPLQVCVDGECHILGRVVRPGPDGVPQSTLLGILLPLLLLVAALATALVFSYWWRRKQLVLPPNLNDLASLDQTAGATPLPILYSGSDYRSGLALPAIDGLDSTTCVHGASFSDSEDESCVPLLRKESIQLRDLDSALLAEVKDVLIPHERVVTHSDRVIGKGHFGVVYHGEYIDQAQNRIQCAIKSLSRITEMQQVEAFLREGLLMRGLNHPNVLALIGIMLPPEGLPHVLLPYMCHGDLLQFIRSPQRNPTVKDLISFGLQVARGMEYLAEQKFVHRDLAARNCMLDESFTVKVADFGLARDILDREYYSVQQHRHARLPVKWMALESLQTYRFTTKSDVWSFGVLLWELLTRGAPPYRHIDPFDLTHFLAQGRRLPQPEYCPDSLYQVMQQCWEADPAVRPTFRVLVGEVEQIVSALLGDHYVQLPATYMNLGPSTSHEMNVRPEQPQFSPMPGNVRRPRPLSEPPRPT
Method in brief: as §1

DDR2 = target: T18, DDR2 (Homo sapiens, UniProt Q16832); assay: Off-target kinase profiling (KinaseProfiler); format: biochemical; settings: 10 μM, ATP near Km
T18 construct: purchased Millipore, Inc. (KinaseProfiler service)
Method in brief: as §1

PKCzeta = target: T19, PKCzeta (Homo sapiens, UniProt Q05513); assay: Off-target kinase profiling (KinaseProfiler); format: biochemical; settings: 10 μM, ATP near Km
T19 construct: purchased Millipore, Inc. (KinaseProfiler service)
Method in brief: as §1

PAK2 = target: T20, PAK2 (Homo sapiens, UniProt Q13177); assay: Off-target kinase profiling (KinaseProfiler); format: biochemical; settings: 10 μM, ATP near Km
T20 construct: purchased Millipore, Inc. (KinaseProfiler service)
Method in brief: as §1

ERK1 = target: T21, ERK1 (Homo sapiens, UniProt P27361); assay: Off-target kinase profiling (KinaseProfiler); format: biochemical; settings: 10 μM, ATP near Km
T21 construct: purchased Millipore, Inc. (KinaseProfiler service)
Method in brief: as §1

EphA2 = target: T22, EphA2 (Homo sapiens, UniProt P29317); assay: Off-target kinase profiling (KinaseProfiler); format: biochemical; settings: 10 μM, ATP near Km
T22 construct: purchased Millipore, Inc. (KinaseProfiler service)
Method in brief: as §1

RIPK2 = target: T23, RIPK2 (Homo sapiens, UniProt O43353); assay: Off-target kinase profiling (KinaseProfiler); format: biochemical; settings: 10 μM, ATP near Km
T23 construct: purchased Millipore, Inc. (KinaseProfiler service)
Method in brief: as §1

ITK = target: T24, ITK (Homo sapiens, UniProt Q08881); assay: Off-target kinase profiling (KinaseProfiler); format: biochemical; settings: 10 μM, ATP near Km
T24 construct: purchased Millipore, Inc. (KinaseProfiler service)
Method in brief: as §1

IC50 [1]: < 100 nM
Avg POC (EphB3): 102.5 POC
Avg POC (ALK4): 104.5 POC
Avg POC (PrKX): 134 POC
Avg POC (KDR): 159 POC
Avg POC (PAK4): 112.5 POC
Avg POC (CAMK2b): 105 POC
Avg POC (SGK2): 147.5 POC
Avg POC (DCAMKL2): 175 POC
Avg POC (PRKG1beta): 119 POC
Avg POC (GSK3alpha): 125 POC
Avg POC (PKCtheta): 124.5 POC
Avg POC (EphB1): 122 POC
Avg POC (Mer): 116 POC
Avg POC (Fer): 122 POC
Avg POC (MARK1): 94.5 POC
Avg POC (Ron): 117 POC
Avg POC (DDR2): 117.5 POC
Avg POC (PKCzeta): 123 POC
Avg POC (PAK2): 121 POC
Avg POC (ERK1): 110 POC
Avg POC (EphA2): 123.5 POC
Avg POC (RIPK2): 107 POC
Avg POC (ITK): 131 POC
SMILES: COCc1ccc2cccc(NC(=O)Nc3c(C)c(-c4cnn(C)c4)nn3-c3ccccc3)c2c1 [Example 16, 1-(1′,4-dimethyl-1-phenyl-1H,1′H-[3,4′-bipyrazol]-5-yl)-3-(7-(methoxymethyl)naphthalen-1-yl)urea]
